# Key:
# PAH-induced SD rats [1] = assay: Dofetilide treatment of SU5416/hypoxia PAH-induced and healthy SD rats, H&E lung histology and morphometric analysis (Example 5); format: in vivo, rat
# Method: (§1) Male SD and Fischer rats were purchased from Charles River Laboratories International, Inc., (Wilmington, Mass., USA). To induce PAH, rats were subcutaneously injected with 20 mg/kg body weight SU5416 (inhibitor of vascular endothelial growth factor (VEGF) receptor Flk/1-KDR; MedChemExpress, Monmouth Junction, N.J., USA) and maintained in hypoxia^28-30. For hypoxia, animals were placed in a chamber (30″ w×20″ d×20″ h) regulated by an OxyCycler Oxygen Profile Controller (Model A84XOV; BioSpherix, Redfield, N.Y., USA) set to maintain 10% O2 with an influx of N2 gas, located in the animal care facility at the Georgetown University Medical Center. […] Animals were fed normal rat chow.
# In a first experiment to determine the effects of a Kv11.1 inhibitor (dofetilide), SD rats were divided into 4 groups that were treated with (1) DMSO, (2) dofetilide, (3) DMSO+SU5416/Hypoxia, and (4) dofetilide+SU5416/Hypoxia, respectively (n=4 for each group). Dofetilide (10 mg/kg body weight) was dissolved in DMSO and injected intraperitoneally before the injection of SU5416. For histological examination, lung tissues were fixed in 10% formalin and embedded in paraffin. The Georgetown University Animal Care and Use Committee approved all animal experiments, and the investigation conformed to the National Institutes of Health Guide for the Care and Use of Laboratory Animals.
# Paraffin-embedded tissues were cut and mounted on glass slides. Tissue sections were subjected to hematoxylin and eosin (H&E) stain and immunohistochemistry using anti-smooth muscle actin (anti-SMA) antibody (Abcam, Cambridge, UK) and Kv11.1 antibody (Alomone Labs, Jerusalem, Israel).
# Lung slides were analyzed for pulmonary artery wall thickness. 30 vessels were analyzed per animal in each group, and four values of external and internal diameters for thickness were measured for each vessel. The wall thickness was calculated as difference of external and internal diameters by using Fiji software.
# Means±SEM were calculated and then comparisons between two groups were analyzed using a two-tailed Student's t test, while comparisons between three or more groups were analyzed using ANOVA with a Student-Newman-Keuls post-hoc test. P<0.05 was considered to be significant.
# To determine if pharmacological inhibition of Kv11.1 channels would affect PAH progression, healthy and PAH-induced SD rats were treated with Kv11.1 channel-specific blocker dofetilide. Lung tissues from four groups of SD rats (four rats in each group) were examined with H&E staining. […] PAH-induced rats in group (3) had increased intimal endothelial cell proliferation, increased SPAMWT, and reduced pulmonary arterial lumen diameter compared to control rats (FIGS. 6A and 6B).
# PAH-induced SD rats [2] = assay: Lower doses of dofetilide in SU5416/hypoxia PAH-induced and healthy SD rats, H&E lung histology (Example 6); format: in vivo, rat
# Method: as §1
# (§2) In a second experiment to determine the effects of dofetilide, SD rats are divided into 4 groups that are treated with (1) DMSO, (2) dofetilide, (3) DMSO+SU5416/Hypoxia, and (4) dofetilide+SU5416/Hypoxia, respectively (n=4 for each group). Dofetilide (1000 μg/kg body weight) is dissolved in DMSO and injected intraperitoneally before the injection of SU5416. For histological examination, lung tissues are fixed in 10% formalin and embedded in paraffin.
# as §2, with “third” for “second”, “(100” for “(1000”
# as §2, with “fourth” for “second”, “(10” for “(1000”
# To examine further if pharmacological inhibition of Kv11.1 channels would affect PAH progression, healthy and PAH-induced SD rats are treated with Kv11.1 channel-specific blocker dofetilide using lower doses (1 mg/kg, 0.1 mg/kg, 0.01 mg/kg, or 0.001 mg/kg) than was used in Example 5. Lung tissues from four groups of SD rats (four rats in each group) are examined with H&E staining. […] PAH-induced rats in Group (3) have increased intimal endothelial cell proliferation, increased SPAMWT, and reduced pulmonary arterial lumen diameter compared to control rats.
# [3] = PAH-induced (SU5416/hypoxia) SD rats, dofetilide 10 mg/kg i.p. before SU5416, group (4) compared with PAH-induced group (3)
# [4] = PAH-induced SD rats, dofetilide lower doses (1, 0.1, 0.01 or 0.001 mg/kg) i.p., Group (4) compared with Group (3)
smiles,measurement,setting,value
CN(CCOc1ccc(NS(C)(=O)=O)cc1)CCc1ccc(NS(C)(=O)=O)cc1 [dofetilide],pulmonary arterial lumen diameter,PAH-induced SD rats [1]; [3],increased
same,small pulmonary arterial media wall thickness (SPAMWT),PAH-induced SD rats [1]; [3],reduced
same,PAH-induced changes in SPAMWT,"PAH-induced SD rats [1]; dofetilide 10 mg/kg i.p., SPAMWT of PAH-induced dofetilide-treated group (4) statistically similar to control group (2)",completely eliminated
same,small pulmonary arterial media wall thickness (SPAMWT) in control rats,"PAH-induced SD rats [1]; healthy SD rats, dofetilide 10 mg/kg i.p. group (2) versus DMSO group (1), data not shown",no statistical differences
same,pulmonary arterial lumen diameter,PAH-induced SD rats [2]; [4],increased
same,small pulmonary arterial media wall thickness (SPAMWT),PAH-induced SD rats [2]; [4],reduced
same,PAH-induced changes in SPAMWT,"PAH-induced SD rats [2]; dofetilide lower doses (1, 0.1, 0.01 or 0.001 mg/kg), SPAMWT of Group (4) statistically similar to control Group (2)",completely eliminates
same,small pulmonary arterial media wall thickness (SPAMWT) in control rats,"PAH-induced SD rats [2]; healthy SD rats, dofetilide lower doses Group (2) versus DMSO Group (1)",no statistical differences

# — patent US11529324B2, “Use of Kv11.1 channel inhibitors for treatment of pulmonary hypertension” (Georgetown University, priority 2019, dated 2022)
